Experimental data taken from patent US20250084138A1, “POLYPEPTIDE HAVING EFFECT OF INHIBITING PROLIFERATION OF LEUKEMIA CELLS” (NANJING FENGRUI BIOTECHNOLOGY CO., LTD, priority 2019, published 2025).
Peptide text beside a SMILES is read from it. * marks the point of attachment. Myristoyl = CCCCCCCCCCCCCC(=O)*

How the values were obtained:
[1] = test system: THP-1 cells of acute myeloid leukemia cell line (AML); assay: Thp-1 cells co-incubated with the polypeptide, cell counting; assay type: cell-based
Description: (§1) The selected experimental cells were: • K562 cells of human chronic myeloid leukemia cell line (CML); • Jurkat cells of acute T lymphocyte leukemia cell line (T-ALL); • THP-1 cells of acute myeloid leukemia cell line (AML); • Baf-3 cells of normal mouse hematopoietic cells (mIL-3 dependent).
(§2) This experiment was grouped into a normal control group, a polypeptide control group, and an experimental polypeptide group.
(§3) Firstly, the polypeptide of the present disclosure was co-incubated with 5*103 (marked as the third power of 10) leukemia tumor cells for 38 h, and the proliferation speed of the cells was detected by two methods of detecting proliferation of the cells (CCK-8) and cell counting, so as to observe the inhibitory effect of the polypeptide on the tumor cells.
(§4) Secondly, the polypeptide was co-incubated with the cells for 24 h, and then collected again, counted, and cultured with drug addition for 38 h, and then detected for the proliferation rate of the cells (CCK-8).
(§5) Each group included one blank (Control), one control peptide (C-p), and three target peptides (P-t, taking an average as the result)

[2] = test system: K562 cells of human chronic myeloid leukemia cell line (CML); assay: K562 cells co-incubated with the polypeptide, cell counting; assay type: cell-based
Description: as §1, §2, §3, §4, §5

various leukemia cells = assay: Overall conclusion on proliferation of the three leukemia cell lines; assay type: cell-based; conditions: K562, Jurkat, THP-1; positive correlation with dosage and times of administration
Description: as §1, §3, §4
The leukemia subtypes represented by the aforementioned three leukemia cells have covered more than 70% of the number of leukemia patients.

[3] = test system: Baf-3 cells of normal mouse hematopoietic cells (mIL-3 dependent); conditions: Baf-3 normal mouse hematopoietic cells
[4] = test system: Jurkat cells of acute T lymphocyte leukemia cell line (T-ALL); assay: Jurkat cells co-incubated with the polypeptide, cell counting; assay type: cell-based
Description: as §1, §2, §3, §4, §5

[5] = test system: Baf-3 cells of normal mouse hematopoietic cells (mIL-3 dependent); assay: Baf-3 normal cells co-incubated with the polypeptide, cell counting; assay type: cell-based
Description: as §1, §2, §3, §4
Thirdly, we used normal mouse hematopoietic cells to carry out the same experiment as the above to observe the effect of the polypeptide on normal cells.
as §5

`CCCCCCCCCCCCCC(=O)N[C@@H](CCCCN)C(=O)N[C@@H](CCC(=O)O)C(=O)N[C@@H](CO)C(=O)N[C@@H](CCSC)C(=O)N[C@@H](CC(=O)O)C(=O)N[C@@H](C)C(=O)N[C@@H](CC(N)=O)C(=O)N[C@@H](CCCCN)C(=O)N1CCC[C@H]1C(=O)N[C@H](C(=O)N[C@@H](CCCCN)C(=O)N[C@@H](CC(N)=O)C(=O)N[C@@H](CC(C)C)C(=O)N1CCC[C@H]1C(=O)N[C@@H](CC(C)C)C(=O)N[C@@H](CCCCN)C(=O)N[C@@H](CCCCN)C(=O)N[C@H](C(=O)N1CCC[C@H]1C(=O)N[C@@H](CS)C(=O)N[C@@H](CCCCN)C(=O)N[C@H](C(=O)N[C@@H](CO)C(=O)N[C@@H](C)C(=O)N1CCC[C@H]1C(=O)N[C@@H](CO)C(=O)N[C@@H](CCC(N)=O)C(=O)N[C@@H](CO)C(=O)N[C@@H](Cc1ccccc1)C(=O)N[C@@H](Cc1ccccc1)C(=O)N[C@@H](C)C(=O)N[C@@H](CCCNC(=N)N)C(=O)N[C@@H](CC(=O)O)C(=O)N[C@@H](CC(N)=O)C(=O)N[C@H](C(=O)N[C@@H](C)C(=O)N[C@@H](CC(N)=O)C(=O)O)[C@@H](C)O)[C@@H](C)O)[C@@H](C)CC)[C@@H](C)O` [P-t] (Myristoyl-KESMDANKPTKNLPLKKIPCKTSAPSQSFFARDNTAN-OH) showed a Cell count ([1]; Thp-1, 10 uM, 38 h, first experiment) of 80.56%, a Cell count ([1]; Thp-1, 15 uM, 24 + 38 h, first experiment) of 63.75% and a Cell count ([1]; Thp-1, 15 uM, 24 + 38 h, second experiment) of 68.22%. The Cell count ([1]; Thp-1, 15 uM, 38 h, first experiment) was 63.17 ± 2.50%, the Cell count ([1]; Thp-1, 15 uM, 38 h, second experiment) was 70.09% and the Cell count ([2]; K562, 10 uM, 24 + 38 h, first experiment) was 66.95%. The Cell count ([2]; K562, 10 uM, 38 h, first experiment) was 90.22 ± 28.17%, the Cell count ([2]; K562, 15 uM, 24 + 38 h, second experiment) was 70.09% and the Cell count ([2]; K562, 15 uM, 38 h, first experiment) was 69.55%. For the same molecule, the Cell count ([2]; K562, 15 uM, 38 h, second experiment) was 80.00%, the “inhibition of the proliferation of various leukemia cells” value (various leukemia cells) was “obviously inhibit” and the “inhibitory effect on the proliferation of normal cells” value [3] was “no inhibitory effect”. The Cell count ([4]; 10 uM, 38 h, first experiment) was 106%, the Cell count ([4]; 15 uM, 24 + 38 h, first experiment) was 70.09 ± 18.75% and the Cell count ([4]; 15 uM, 24 + 38 h, second experiment) was 65.12%. It also gave a Cell count ([4]; 15 uM, 38 h, first experiment) of 69.55 ± 8.35 %, a Cell count ([4]; 15 uM, 38 h, second experiment) of 73.17% and a Cell count ([5]; Baf-3, 10 uM, 24 + 38 h, first experiment) of 100.11%. The Cell count ([5]; Baf-3, 10 uM, 38 h, first experiment) was 99.98%, the Cell count ([5]; Baf-3, 15 uM, 24 + 38 h, second experiment) was 100.83% and the Cell count ([5]; Baf-3, 15 uM, 38 h, second experiment) was 100.41%.
